These results are taken from patent US11986530B2, “Drug composition for parenteral administration” (THERABIOPHARMA INC., priority 2016, dated 2024).

Data set [1] has as its system colorectal cancer cells derived from adult human colon HCT116. As to the kind of experiment: Anti-tumor effect by intravenous administration of curcumin conjugates (tumor size, HCT116 transplanted mice). Format: in vivo, BALB/cAnNcr j-nu/nu (homo) mice. To be noted: HCT116 mouse. The source says: 1×10^7 or 4×10^6 colorectal cancer cells derived from adult human […] colon HCT116 (ATCC No. CCL-247) were transplanted subcutaneously into the flank of each of the test animals by using a 27 G injection needle.
In this regard, in the control group, mice to which water for injection excluding curcumin monoglucuronide had been administered intravenously were used.
For the tumor size, after each lapse of 0, 4, 7, 11 and 14 days from the start of administration or after each lapse of 0, 4, 7, 11, 14, 18 and 21 days from the start of administration, the length, width and height of the tumor were measured by using a vernier caliper, and the tumor size was calculated by the following equation. Tumor size (mm^3)=length×width×height×0.5 (5) Concentration of Curcumin Conjugates and Free Curcumin in Tumor Tissue

Data set [2] in a line: Serum biochemical test (liver and biliary diseases set, 21 items) in tumor-bearing mice. Format: in vivo, BALB/cAnNcr j-nu/nu (homo) mice. To be noted: 30 mg/kg i.v., 14 days from start of administration.
Another data set is described as follows: in vivo. To be noted: mouse. How it is done:
Intravenous administration of a single dose of curcumin monoglucuronide was performed to each of the mice at each dose of 125, 250, 500 and 1000 mg/kg, and the toxicity thereof was evaluated. In this regard, the number of mice in each group was set to be n=5.
As the test animals, 6-week old Slc:ICR mice (male, with a body weight of 27 to 31 g, Japan SLC, Inc.), which had been purchased and acclimated to the environment for around 6 days, was used.
Observation of the state of each of the mice was performed by recording the type, extent, expression time, recovery time, and death (death detection) time of all of the toxic signs observed macroscopically.
Observation was performed at a time immediately after administration, at a time after each lapse of 30 minutes, 1, 2, 4 and 6 hours from the start of administration, and once a day from the day following the date of administration (up to after the lapse of 14 days from the start of administration).
The body weight was measured by using an electronic balance (UW4200S, Shimadzu Corporation) immediately before administration, and after each lapse of 1, 3, 7, 10 and 14 days from the administration.
Blood biochemical test was performed by the following method. That is, mice were fasted for 4 hours or more after the end of the mouse observation period (after the lapse of 14 days from the start of administration), the fasted mice were subjected to laparotomy under anesthesia by intraperitoneal administration of pentobarbital sodium, and the blood was collected from the abdominal aorta (the amount of the blood was 0.6 mL or more). Next, the collected blood was anti-coagulated with heparin sodium, and then the anti-coagulated blood was centrifuged (4° C., 3000 rpm, for 10 minutes) to obtain the plasma, and transaminase (AST and ALT) contained in the plasma was measured.
After the end of the observation period (after the lapse of 14 days from the start of administration), autopsy was performed as follows: blood was collected from each of the mice under anesthesia with pentobarbital sodium; and then the mice were sacrificed by exsanguination by cutting the abdominal aorta and the caudal vena; each of the sacrificed mice was dissected according to a pathological technique; and the cranium, the intrathoracic organs, the intraperitoneal organs, and the tissues thereof were observed macroscopically.

A further data set relates to β-glucuronidase. To be noted: 10 μL of 2.81 μg/mL substrate, pH 5.0, 37° C., 1 hour, n=3.
A further data set concerns KBM-5. Particulars: KBM-5, in vitro; cited from earlier work.
The next data set relates to Jurkat cells. Particulars: in vitro; cited from earlier work.
A further data set concerns U266. To be noted: U266, in vitro; cited from earlier work.
The next data set deals with A549. To be noted: A549, in vitro; cited from earlier work.
For data set [3], the system named is human hepatocellular carcinoma cell lines (HepG2 cells). Particulars: cited from earlier work.
The test system is the same in data set [4]. To be noted: compared to free curcumin; cited from earlier work.

Procedure for β-glucuronidase: In this regard, as a control, curcumin monoglucuronide was used for the examination.
In addition, as the curcumin diglucuronide, commercially available curcumin diglucuronide (manufactured by SynInnova Laboratories Inc.) was used.
Next, into the resultant mixture, 0.5 mL of chloroform was added, and the mixture was stirred for 1 minute with a vortex mixer, and then the stirred mixture was treated for 15 minutes by using an ultrasonic generator, and the treated mixture was fractionated into a chloroform layer and a water layer by centrifugation (10,000×g, for 5 minutes, at room temperature). Further, this fractionation process was repeated twice. After that, the chloroform layer was collected, and dried and solidified by distilling off the solvent with a vacuum centrifugal concentrator, and to the dried and solidified matter, 100 μL of 50% (v/v) methanol was added, and then the resultant mixture was centrifuged (10,000×g, for 5 minutes, at room temperature) to collect a supernatant liquid, and the collected supernatant liquid was taken as an enzyme-treated sample.
In 2 μL of the enzyme-treated sample prepared in the above (2), free curcumin was measured by the method described in “b.

As to `COc1cc(/C=C/C(O)=C/C(=O)/C=C/c2ccc(O[C@@H]3O[C@H](C(=O)O)[C@@H](O)[C@H](O)[C@H]3O)c(OC)c2)ccc1O` [curcumin monoglucuronide], the tumor size in data set [1] (30 mg/kg i.v., 0 day from start of administration) was 142.9±45.5 mm^3; in data set [1] (30 mg/kg i.v., 4 days), 275.1±88.1 mm^3; in data set [1] (30 mg/kg i.v., 11 days), 489.4±147.8 mm^3; in [1] (30 mg/kg i.v., 14 days), 581.2±197.4 mm^3; in [1] (90 mg/kg i.v., 0 day from start of administration), 17.4±3.2 mm^3; in data set [1] (90 mg/kg i.v., 4 days) it was 23.6±8.4 mm^3. Further, the tumor size in data set [1] (90 mg/kg i.v., 7 days) is given as 42.6±16.6 mm^3; in data set [1] (90 mg/kg i.v., 11 days) it was 77.5±28.9 mm^3; in data set [1] (90 mg/kg i.v., 14 days) it was 122.9±42.6 mm^3; in data set [1] (90 mg/kg i.v., 18 days), 204.4±76.2 mm^3; in data set [1] (90 mg/kg i.v., 21 days), 190.2±70.1 mm^3. The “serum biochemical test values (liver and biliary diseases set, 21 items)” value in data set [2] was “no abnormality was found in the test values”. Further, the “prone position and reduction of locomotor activity, number of mice” value in the data set “in vivo” (male, Slc:ICR) was determined as 5. The “reduction of locomotor activity, number of mice” value in the data set “in vivo” (male, Slc:ICR) was found to be 5. Besides, the 50% lethal dose (LD50) at 14 days in “in vivo” (male, Slc:ICR, iv) lay in the range of 500 to 1000 mg/kg. Also, in “in vivo”, the autopsy findings entry is “no abnormality was found”. For the same molecule, the “state of mice by macroscopy” value in “in vivo” is “no abnormality was found”. The “concentration of the curcumin contained in the enzyme-treated sample” value in the data set on β-glucuronidase is 159.1 ± 6.1 ng/mL. Further, the “cell growth inhibitory effect” value is “there is no such an effect” with KBM-5; “there is no such an effect” in the data set with Jurkat cells; “there is no such an effect” with U266; “there is no such an effect” in the data set on A549; “the effect was not found” in [3]. The “influence on the gene expression” value in data set [4] was “the action was extremely low”.

One may read the LD50 as the dose expected to kill half of the subjects tested. A higher LD50 goes with lower toxicity.
